The values that follow come from patent publication US20100074083A1, “RESIN COMPOSITION AND MOLDED PRODUCT OBTAINED BY MOLDING THE RESIN COMPOSITION” (MITSUI CHEMICALS, INC., priority 2006, published 2010).

The nature of series [1]: Weight reducing temperature at heating (heat resistance, TG-DTA). Type of series: physicochemical. Conditions: heated at 5° C./minutes under nitrogen. The procedure:
The sample was heated at 5° C./minutes under nitrogen, and measured by means of TG8120 type TG-DTA device manufactured by Rigaku Corporation.

The next series can be described thus: Hexane solubility. Type of series: physicochemical. As to conditions: stirred 1 hour, naked eye; for Hexane solubility 43 g: 43 g sample in 100 g n-hexane at 23° C.; for Hexane solubility 100 g: 100 g sample in 100 g n-hexane at 23° C. As to the method: The samples in an amount as shown in Table 1 were added into 100 g of n-hexane at 23° C., and the mixture was stirred for 1 hour, and thereafter the state was evaluated with naked eyes on the basis of following criteria.
(Criteria for Evaluation)
S; Completely dissolved, C; Dissolved, but insoluble materials remained, and I.S.; Substantially not dissolved.

As to `CCCCCCCCCCCCN(CCCNc1nc(N(CCCC)C2CC(C)(C)N(C)C(C)(C)C2)nc(N(CCCC)C2CC(C)(C)N(C)C(C)(C)C2)n1)CCCNc1nc(N(CCCC)C2CC(C)(C)N(C)C(C)(C)C2)nc(N(CCCC)C2CC(C)(C)N(C)C(C)(C)C2)n1` [Exemplary compound 4], in series [1], the “Heat resistance 1% by weight reducing temperature” value was 292.7 °C and the “Heat resistance 5% by weight reducing temperature” value came to 357.2 °C. In “Hexane solubility”, the “Hexane solubility 43 g” value is reported as “S” and the “Hexane solubility 100 g” value is listed as “S”.
With `CCCCN(c1nc(N(CCCC)C2CC(C)(C)N(C)C(C)(C)C2)nc(N(CCCC)C2CC(C)(C)N(C)C(C)(C)C2)n1)C1CC(C)(C)N(C)C(C)(C)C1` [Exemplary compound 6, N,N′,N″-tributyl-N,N′,N″-tris-(1,2,2,6,6-pentamethyl-4-piperidinyl)-[1,3,5]-triazine-2,4,6-triamine], in series [1], the “Heat resistance 1% by weight reducing temperature” value is 250.7 °C and the “Heat resistance 5% by weight reducing temperature” value is 320.2 °C. For the same compound, in the series “Hexane solubility”, the “Hexane solubility 43 g” value is “S” and the “Hexane solubility 100 g” value was “S”.
For `CCCCCCCCCCCCNc1nc(N(CCCCCCCCCCCC)C2CC(C)(C)NC(C)(C)C2)nc(N(CCCCCCCCCCCC)C2CC(C)(C)NC(C)(C)C2)n1` [Exemplary compound 2, N,N′,N″-trilauryl-N,N′-bis-(2,2,6,6-tetramethylpiperidin-4-yl)-[1,3,5]-triazine-2,4,6-triamine], in series [1], the “Heat resistance 1% by weight reducing temperature” value turned out to be 292.9 °C and the “Heat resistance 5% by weight reducing temperature” value was 366.7 °C. Besides, in the series “Hexane solubility”, the “Hexane solubility 43 g” value was “S” and the “Hexane solubility 100 g” value is reported as “S”.
Consider `CCCCCCCCCCCCNc1nc(N(CCCC)C2CC(C)(C)NC(C)(C)C2)nc(N(CCCC)C2CC(C)(C)NC(C)(C)C2)n1` [Exemplary compound 9, N,N′-dibutyl-N″-dodecyl-N,N′-bis(2,2,6,6-tetramethyl-4-piperidyl)-1,3,5-triazine-2,4,6-triamine], for which the “Hexane solubility 43 g” value in “Hexane solubility” is “S”.
Consider `CCCCCCCCN(c1nc(N(CCCCCCCC)C2CC(C)(C)N(C)C(C)(C)C2)nc(N(CCCCCCCC)C2CC(C)(C)N(C)C(C)(C)C2)n1)C1CC(C)(C)N(C)C(C)(C)C1` [Exemplary compound 7, N,N′,N″-trioctyl-N,N′,N″-tris-(1,2,2,6,6-pentamethyl-4-piperidinyl)-[1,3,5]-triazine-2,4,6-triamine], for which, in series [1], the “Heat resistance 1% by weight reducing temperature” value came out at 291.5 °C and the “Heat resistance 5% by weight reducing temperature” value turned out to be 340.1 °C. In “Hexane solubility”, the “Hexane solubility 43 g” value is “S” and the “Hexane solubility 100 g” value is on record as “S”.
For `CCCCN(CCCC)c1nc(N(CCCC)C2CC(C)(C)NC(C)(C)C2)nc(N(CCCC)C2CC(C)(C)NC(C)(C)C2)n1` [Exemplary compound 11, N,N′,N″,N″-tetrabutyl-N,N′-bis(2,2,6,6-tetramethyl-4-piperidyl)-1,3,5-triazine-2,4,6-triamine], in “Hexane solubility”, the “Hexane solubility 43 g” value was “S” and the “Hexane solubility 100 g” value is “S”.
Take `CCCCCCCCCCCCNc1nc(N(CCCC)C2CC(C)(C)N(C)C(C)(C)C2)nc(N(CCCC)C2CC(C)(C)N(C)C(C)(C)C2)n1` [Exemplary compound 1, N,N′-dibutyl-,N″-lauryl-N,N′-bis-(1,2,2,6,6-pentamethyl-4-piperidin-4-yl)-[1,3,5]-triazine-2,4,6-triamine]: in series [1], the “Heat resistance 1% by weight reducing temperature” value amounted to 271.6 °C and the “Heat resistance 5% by weight reducing temperature” value was found to be 333.4 °C. Further, in “Hexane solubility”, the “Hexane solubility 43 g” value was “S” and the “Hexane solubility 100 g” value was “S”.
In the case of `CCCCCCCCN(CCCCCCCC)c1nc(N(CCCC)C2CC(C)(C)NC(C)(C)C2)nc(N(CCCC)C2CC(C)(C)NC(C)(C)C2)n1` [Exemplary compound 12, N,N′-dibutyl-N,N′-bis(2,2,6,6-tetramethyl-4-piperidyl)-N″, N″-dioctyl-1,3,5-triazine-2,4,6-triamine], in the series “Hexane solubility”, the “Hexane solubility 43 g” value was “S” and the “Hexane solubility 100 g” value is “S”.
For `CCCCNc1nc(N(CCCC)C2CC(C)(C)NC(C)(C)C2)nc(N(CCCC)C2CC(C)(C)NC(C)(C)C2)n1` [Exemplary compound 10, N,N′,N″-tributyl-N,N′-bis(2,2,6,6-tetramethyl-4-piperidyl)-1,3,5-triazine-2,4,6-triamine], in the series “Hexane solubility”, the “Hexane solubility 43 g” value was “S”.
Regarding `CCCCCCCCCCCCNc1nc(N(CCCCCCCC)C2CC(C)(C)N(C)C(C)(C)C2)nc(N(CCCCCCCC)C2CC(C)(C)N(C)C(C)(C)C2)n1` [Exemplary compound 13, N-dodecyl-N′,N″-bis(1,2,2,6,6-pentamethyl-4-piperidyl)-N′,N″-dioctyl-1,3,5-triazine-2,4,6-triamine], in the series “Hexane solubility”, the “Hexane solubility 43 g” value is given as “S” and the “Hexane solubility 100 g” value is “S”.
Regarding `CCCCCCCCCCCCN(c1nc(NCCCC)nc(N(CCCCCCCCCCCC)C2CC(C)(C)NC(C)(C)C2)n1)C1CC(C)(C)NC(C)(C)C1` [Exemplary compound 14, N-butyl-N′,N″-didodecyl-N′,N″-bis(2,2,6,6-tetramethyl-4-piperidyl)-1,3,5-triazine-2,4,6-triamine], in “Hexane solubility”, the “Hexane solubility 43 g” value is recorded as “S” and the “Hexane solubility 100 g” value is reported as “S”.
For the compound `CCCCCCCCCCCCNC1CC(C)(C)NC(C)(C)C1` [Exemplary compound 5, N-dodecyl-2,2,6,6-tetramethyl piperidine-4-amine], in series [1], the “Heat resistance 1% by weight reducing temperature” value came out at 103.3 °C and the “Heat resistance 5% by weight reducing temperature” value amounted to 188.1 °C. In the series “Hexane solubility”, the “Hexane solubility 43 g” value is listed as “S” and the “Hexane solubility 100 g” value is “S”.
For `CCCCCCCCCCCCN(c1nc(N(CCCCCCCCCCCC)C2CC(C)(C)NC(C)(C)C2)nc(N(CCCCCCCCCCCC)C2CC(C)(C)NC(C)(C)C2)n1)C1CC(C)(C)NC(C)(C)C1` [Exemplary compound 3, N,N′,N″-trilauryl-N,N′,N″-tris(2,2,6,6-tetramethyl-4-piperidin-4-yl)-[1,3,5]-triazine-2,4,6-triamine], in series [1], the “Heat resistance 1% by weight reducing temperature” value was 246.2 °C and the “Heat resistance 5% by weight reducing temperature” value worked out at 377.1 °C. In “Hexane solubility”, the “Hexane solubility 43 g” value is recorded as “S” and the “Hexane solubility 100 g” value was “S”.
With `CCCCCCCCCCCCN(c1nc(N(CCCCCCCCCCCC)C2CC(C)(C)N(C)C(C)(C)C2)nc(N(CCCCCCCCCCCC)C2CC(C)(C)N(C)C(C)(C)C2)n1)C1CC(C)(C)N(C)C(C)(C)C1` [Exemplary compound 8, N,N′,N″-tridodecyl-N,N′,N″-tris-(1,2,2,6,6-pentamethyl-4-piperidinyl)-[1,3,5]-triazine-2,4,6-triamine], in series [1], the “Heat resistance 1% by weight reducing temperature” value is 330.1 °C and the “Heat resistance 5% by weight reducing temperature” value amounted to 378.2 °C. Besides, in “Hexane solubility”, the “Hexane solubility 43 g” value was “S” and the “Hexane solubility 100 g” value is listed as “S”.
With `CC1(C)CC(OC(=O)CCCCCCCCC(=O)OC2CC(C)(C)NC(C)(C)C2)CC(C)(C)N1` [TINUVIN 770], in series [1], the “Heat resistance 1% by weight reducing temperature” value amounted to 207.4 °C and the “Heat resistance 5% by weight reducing temperature” value stood at 248.4 °C. The “Hexane solubility 25 g” value in the series “Hexane solubility” (25 g sample in 100 g n-hexane at 23° C.) is “I.S”.
